Consider two molecules from US20080214844A1, “Icaritin and desmethylicaritin as anti-cancer agents” (priority 2007, published 2008).

Structures are written as SMILES. Bounds are passed on as bounds.

By IC50 is commonly meant the point on the concentration scale where inhibition reaches its midpoint. Read a high IC50 as weaker potency in that assay.

Assay [1] concerns highly metastatic human lung cancer cells (PG). The following applies: PG cells in vitro; cited from earlier work.
For assay [2], the system named is hepatoma or leukemia cell lines. The following applies: other studies; cited from earlier work.
For a further assay, the system named is LNCAP. Kind of assay: MTT cell viability assay, LNCAP. The following applies: Prostate, 3 days culture. In kind it is cell-based, human. The method, then:
(§1) 26 cancer cell lines were grown in normal growth medium in the presence of different concentrations Icaritin or Desmethylicaritin. After culture for 3 days, the cell viability was then measured by an MTT assay. […] Some EC50s were lower than 10 uM for these two compounds. […] Whereas, normal human mammary gland epithelial cells (MCF10A) were not sensitive to Icaritin and Desmethylicaritin. These cells grew well when treated with these two compounds at a concentration of 50 uM.

In another assay the test system is D145. In words: MTT cell viability assay, D145. The class given is cell-based, human. Conditions: D145, Prostate, 3 days culture. The method, then: as §1
On the technique in general: Tetrazolium assays rely on reduction of a dye to a coloured formazan, in cell work by metabolically active cells.

For the next assay, the system named is PC3. Kind of assay: MTT cell viability assay, PC3. In kind it is cell-based, human. The following applies: PC3, Prostate, 3 days culture. On the procedure: as §1
In the next assay the test system is HCT-116. In words: MTT cell viability assay, HCT-116. The following applies: HCT-116, Colon, 3 days culture. In kind it is cell-based, human. The method, then:
as §1

A further assay concerns Widr. Kind of assay: MTT cell viability assay, Widr. In kind it is cell-based, human. The following applies: Colon, 3 days culture. The method, then: as §1
A further assay concerns HT29. Kind of assay: MTT cell viability assay, HT29. In kind it is cell-based, human. Conditions: HT29, Colon, 3 days culture. On the procedure:
as §1

The next assay has as its system LoVo. Kind of assay: MTT cell viability assay, LoVo. The class given is cell-based, human. The following applies: Colon, 3 days culture. On the procedure:
as §1

The test system of a further assay is CCL-225. Kind of assay: MTT cell viability assay, CCL-225. The class given is cell-based, human. The following applies: CCL-225, Colon, 3 days culture. On the procedure:
as §1

Another assay deals with CCL-247. Kind of assay: MTT cell viability assay, CCL-247. The class given is cell-based, human. The following applies: CCL-247, Colon, 3 days culture. On the procedure: as §1
In another assay the test system is NCI-H23. Kind of assay: MTT cell viability assay, NCI-H23. The class given is cell-based, human. Conditions: NCI-H23, Lung, 3 days culture. On the procedure: as §1
A further assay has as its system A549. In words: MTT cell viability assay, A549. The class given is cell-based, human. Conditions: A549, Lung, 3 days culture. On the procedure:
as §1

Another assay concerns MDA-MB-231. Kind of assay: MTT cell viability assay, MDA-MB-231. In kind it is cell-based, human. The following applies: MDA-MB-231, Breast, 3 days culture. On the procedure:
as §1

A further assay relates to MDA-MB-435. Kind of assay: MTT cell viability assay, MDA-MB-435. The class given is cell-based, human. Conditions: MDA-MB-435, Breast, 3 days culture. On the procedure:
as §1

In the next assay the test system is AU-565. In words: MTT cell viability assay, AU-565. The class given is cell-based, human. The following applies: AU-565, Breast, 3 days culture. The method, then: as §1
The subject of the next assay is BT-549. Kind of assay: MTT cell viability assay, BT-549. The class given is cell-based, human. Conditions: BT-549, Breast, 3 days culture. The method, then:
as §1

The test system of another assay is MCF-7. In words: MTT cell viability assay, MCF-7. The class given is cell-based, human. Conditions: MCF-7, Breast, 3 days culture. The method, then: as §1
The next assay has as its system Caki-1. In words: MTT cell viability assay, Caki-1. The class given is cell-based, human. The following applies: Caki-1, Kidney, 3 days culture. On the procedure: as §1
The test system of another assay is ACHN. Kind of assay: MTT cell viability assay, ACHN. The class given is cell-based, human. The following applies: Kidney, 3 days culture. The method, then:
as §1

The next assay deals with 786-O. Kind of assay: MTT cell viability assay, 786-O. The class given is cell-based, human. The following applies: Kidney, 3 days culture. On the procedure:
as §1

In another assay the test system is SN12C. Kind of assay: MTT cell viability assay, SN12C. The class given is cell-based, human. Conditions: Kidney, 3 days culture. The method, then:
as §1

The next assay concerns SKOV3. Kind of assay: MTT cell viability assay, SKOV3. The class given is cell-based, human. The following applies: SKOV3, Ovary, 3 days culture. On the procedure: as §1
The subject of the next assay is IGROV1. Kind of assay: MTT cell viability assay, IGROV1. The class given is cell-based, human. Conditions: IGROV1, Ovary, 3 days culture. On the procedure: as §1
The subject of the next assay is Mid PaCa-2. In words: MTT cell viability assay, Mid PaCa-2. In kind it is cell-based, human. The following applies: Mid PaCa-2, Pancreas, 3 days culture. On the procedure: as §1
The test system of the next assay is U-251. Kind of assay: MTT cell viability assay, U-251. In kind it is cell-based, human. The following applies: U-251, Glioblastoma, 3 days culture. The method, then: as §1
The next assay deals with SK-MEL-5. Kind of assay: MTT cell viability assay, SK-MEL-5. In kind it is cell-based, human. Conditions: SK-MEL-5, Skin, 3 days culture. On the procedure:
as §1

The subject of the next assay is G-361. In words: MTT cell viability assay, G-361. The following applies: G-361, Skin, 3 days culture. The class given is cell-based, human. On the procedure: as §1
The next assay concerns Raji. Kind of assay: MTT cell viability assay, Raji. The class given is cell-based, human. Conditions: Lymphoma, 3 days culture. The method, then: as §1
For the next assay, the system named is Jurkat T cell. In words: MTT cell viability assay, Jurkat T cell. Conditions: Leukemia, 3 days culture. In kind it is cell-based, human. On the procedure:
as §1

For another assay, the system named is MCF-10a. Kind of assay: MTT cell viability assay, MCF-10a normal breast epithelial cells. The class given is cell-based, human. On the procedure:
as §1

Assay [3] relates to FAS protein levels in LNCaP cells. Kind of assay: Western blot analysis for FAS protein levels. The class given is cell-based, human.
Assay [4] concerns LNCaP cells and MDA-MB-231 cells. Kind of assay: Synthesis of lipid classes in cancer cells. The class given is cell-based, human. On the procedure: Icaritin and Desmethylicaritin decrease Lipogenesis in Prostate and Breast Cancer cells via inhibition of fatty acid synthase (FAS) Activity. Protein extracts from LNCaP cells, which had been ^14C-labeled with malonyl-CoA, were pretreated with these two compounds. A concentration of 0.5 μM Icaritin or Desmethylicaritin reduced the in vitro enzymatic FAS activity to less than 50%. […] Consistent with their FAS inhibitory effect, inhibition of lipogenesis by Icaritin and Desmethylicaritin affected the synthesis of phospholipids (including phosphatidylcholine, phosphatidylethanolamine, phosphatidylinositol, phosphatidylserine, and sphingomyelin) and of triglycerides in LNCaP cells and MDA-MB-231 cells. […] Cholesterol synthesis, however, accounts for less than 10% of the total lipogenic activity in LNCaP and MDA-MB-231 cancer cells, whereas ˜75 and 15% of the lipogenic activity in these cells represents phospholipid and triglyceride synthesis, respectively.

The next assay relates to estrogen receptor. Conditions: mediated by the estrogen receptor; cited from earlier work.

For `COc1ccc(-c2oc3c(CC=C(C)C)c(O[C@@H]4O[C@H](CO)[C@@H](O)[C@H](O)[C@H]4O)cc(O)c3c(=O)c2O[C@@H]2O[C@@H](C)[C@H](O)[C@@H](O)[C@H]2O)cc1` [ICA, Icariin], in [1], the “PG cells adhesive ratio to laminin substrate” value is “decreased”, the “ability of invasion or migration” value is reported as “decreased”, the cAMP/cGMP ratio entry is “increased” and the “distribution of PG cells cycle” value is “reduce S phase”. In assay [1], the “expression of membrane HLA-ABC antigen” value was “increase”, the “level of cAMP in PG cells” value is on record as “increased”, the “level of cGMP” value is “reduced” and the “membrane fluidity of PG” value was “enhance”. Also, the “inhibition of hepatoma or leukemia cell lines” value in assay [2] is on record as “no inhibition”.
Consider `CC(C)=CCc1c(O)cc(O)c2c(=O)c(O)c(-c3ccc(O)cc3)oc12` [Desmethylicaritin], for which the IC50 with LNCAP stood at 6.1 µM; in the assay with D145, 9.8 µM; with PC3, 10.6 µM; in the assay with HCT-116, 6.9 µM; with Widr, 11.3 µM; in the assay with HT29, 16.8 µM. Moreover, the half-maximal inhibitory concentration (IC50) in the assay on LoVo was 10.5 µM; in the assay on CCL-225 it was 8.9 µM; in the assay with CCL-247, 17.6 µM; in the assay on NCI-H23, 6.5 µM; in the assay with A549 it was 10.7 µM; with MDA-MB-231, 6.5 µM. The half-inhibitory concentration (IC50) was determined as 12.7 µM in the assay on MDA-MB-435; 8.9 µM with AU-565; 9.6 µM in the assay with BT-549; 24.8 µM in the assay with MCF-7; 7.5 µM in the assay on Caki-1; 9.7 µM in the assay on ACHN. Also, the IC50 in the assay on 786-O turned out to be 10.9 µM; in the assay with SN12C it was 15.9 µM; with SKOV3, 10.4 µM; in the assay on IGROV1, 11.2 µM; in the assay on Mid PaCa-2, 8.6 µM; in the assay on U-251, 7.3 µM. The IC50 was 10.8 µM in the assay on SK-MEL-5; 7.4 µM in the assay with G-361; 5.2 µM in the assay with Raji; 4.9 µM in the assay on Jurkat T cell; above 50 µM in the assay with MCF-10a (MCF-10a, Normal breast epithelial cells, 3 days culture, MTT). Further, the “sensitivity of normal human mammary gland epithelial cells (MCF10A)” value with MCF-10a (cells grew well at 50 uM) is “not sensitive”. Further, the “FAS protein levels (Western blot)” value in assay [3] was “did not influence”. Besides, in assay [4] (LNCaP and MDA-MB-231 cells), the synthesis of cholesterol entry is reported as “decreased”. In assay [4] (LNCaP cells and MDA-MB-231 cells), the “synthesis of phospholipids and of triglycerides” value is “affected”. In addition, the estrogenic effect entry in the assay on estrogen receptor is reported as “week phytoestrogens”.
